# Results from patent US7582786B2, “Synthetic catalytic free radical scavengers useful as antioxidants for prevention and therapy of disease” (Eukarion Inc., priority 1996, dated 2009).
# Key:
# [1] = SOD activity, inhibition of cytochrome C reduction by xanthine plus xanthine oxidase (Example 1); assay type: biochemical; conditions: Example 1, cytochrome C reduction
# Protocol: The SOD activity of the compounds was determined by evaluating the inhibition of the reduction of cytochrome C produced by the oxygen free radical generating system, xanthine plus xanthine oxidase. Cytochrome C reduction is monitored spectrophotometrically at 550 nm according to the method described in Darr et al. (1987) Arch. Biochem. Biophys. 258: 351, incorporated herein by reference. The concentration of xanthine oxidase is adjusted such that it produces a rate of reduction of cytochrome C at 550 nm of 0.025 absorbance unit per minute. Under these conditions, the amount of SOD activity required to inhibit the rate of cytochrome C reduction by 50 percent (i.e., to a rate of 0.0125 absorbance unit per minute) is defined as one unit of activity. Salen-metal complexes are identified as antioxidants if they have at least 0.1 unit of activity at a concentration of 1 mM under these standard assay conditions.
# [2] = Catalase activity, decomposition of hydrogen peroxide monitored at 240 nm (Example 1); assay type: biochemical; conditions: Example 1, H2O2 decomposition at 240 nm
# Protocol: Catalase activity was measured using a spectrophotometric method in which the decomposition of hydrogen peroxide is monitored at 240 nm according to the method of Aebi et al. (1984) Methods Enzymol. 105: 121, incorporated herein by reference. One unit of catalase activity is defined as the amount of enzyme (or salen-metal complex) required to decompose 1 μmole of hydrogen peroxide in one minute.
# brain microsomes = assay: Lipid peroxidation induced in brain microsomes by iron and ascorbate (MDA)
# Source text: A series of salen-metal complexes were synthesized and their catalytic activities determined. […] FIGS. 24A-24H show structural formulae of further salen-metal compounds which were synthesized and evaluated.
# [3] = Catalase activity, conversion of H2O2 to oxygen, polarographic oxygen electrode (Example 2); assay type: biochemical
# Procedure, shortened: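 Clark-type oxygen electrode at 25 °C in 50 mM sodium phosphate pH 8.1, 0.9% NaCl, with 10 μM salen-manganese complex and 10 mM H2O2. Initial rates from slope of first ~5 s, corrected for H2O2-alone rate; endpoint O2 as maximal minus pre-substrate baseline.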
# brain homogenates = assay: Iron-induced lipid peroxidation in brain homogenates (MDA); assay type: biochemical, rat
# Protocol: Lipid peroxidation was induced by incubating a mixture consisting of 0.25 ml homogenate, 0.25 ml ASCF with test compounds, and 10 μM FeCl2 for 1 hr at 35° C. under an atmosphere equilibrated with O2:CO2(95:5). Following the incubation, 0.1 ml of the sample was extracted with trichloroacetic acid and analyzed for thiobarbituric acid reactive material as described previously, using authentic malonyldialdehyde (MDA) as a standard.
# [4] = Peroxidase activity with t-BHP as substrate, ABTS oxidation; assay type: biochemical
# Protocol: Peroxidase activity was assayed by monitoring the hydrogen peroxide-dependent oxidation of 2,2′-azino-bis(3-ethylbenzthiazoline-6) sulfonic acid (ABTS) spectrophotometrically. Standard assay mixtures consisted of 50 mM sodium phosphate, pH 8.1, 0.9% sodium chloride, 0.5 mM ABTS, and H2O2 and salen manganese complex as indicated. Where indicated, 50 mM sodium phosphate buffers of pH 6.0 or pH 7.1 were substituted. Assays were conducted at 27±0.2° C. ABTS oxidation was monitored at 740 or 500 nm to eliminate interference by the salen manganese complexes, many of which absorb in the vicinity of the λmax of oxidized ABTS, and to avoid absorbance values that exceeded the linear range of the spectrophotometer. The amount of oxidized ABTS was estimated using an Δε740 of 20,300 M^−1cm^−1 or an Δε500 of 3400 M^−1cm^−1 calculated based upon the published molar extinction coefficient oat 405 nm (36,800).
# (In comparison, horseradish peroxidase utilized t-BHP with an ABTS oxidation rate that was about 5.4% of the rate with H2O2).
# [5] = SOD activity, xanthine/xanthine oxidase with cytochrome C as acceptor (Example 2); assay type: biochemical; conditions: relative to C7 (C7 = 100)
# Procedure, shortened: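 Superoxide was generated by 120 µM xanthine and 0.2 U/ml xanthine oxidase in 50 mM sodium phosphate pH 7.8 at 27 °C, with salen manganese compounds at ≥4 concentrations in duplicate.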
# [6] = system: Human dermal fibroblasts (HF cells); assay: Cell protection assay, tert-butylhydroperoxide (t-BHP) toxicity, XTT; assay type: cell-based; conditions: for Cell viability, absorbance at 490 nm uncorrected for blank: t-BHP 0.5 mM
# Protocol: (§1) Human dermal fibroblasts (HF cells) were obtained from the American type tissue Culture Collection at passage 1 and cultured and propagated in a medium (HF medium) consisting of Dulbecco's Modified Eagle's Medium with 4.5 g/l D-glucose, 10% calf serum 4 mM glutamine, 50 units/ml penicillin, and 50 μg/ml streptomycin in a 37° C. humidified incubator equilibrated with 5% CO2. Cells were used at passages 5 or 6 for experiments. For cell protection assays, HF cells were seeded at a density of about 15,000 cells per cm2 onto 96-well culture plates and allowed to grow to confluence. To assess protection tert-butylhydroperoxide (t-BHP) toxicity, confluent cell layers were first treated with the indicated concentrations of test compounds dissolved in HF medium for 18 hr. The medium was then replaced with fresh medium containing test compounds and 0.5 mM tert-butylhydroperoxide (t-BHP) and cells were incubated for another 18 hr. The medium was then removed and replaced with fresh HF medium (100 μl per well) without test compounds or t-BHP. Fifty μl of XTT reagent (Boeringer Mannheim, Inc.), prepared as described by the manufacturer, was then added to each well and the plates returned to the incubator. After 2 hr., the absorbance at 490 nm was measured in a BioRad (Richmond, Calif.) Model 3550 plate-reader, using a reference wavelength of 655 nm. Control cells that had not been exposed to test compounds or toxic agents were included among the samples treated with XTT reagent. Absorbance measurements for blank wells, containing HF medium and XTT reagent but no cells, were also determined. To analyze protection from glucose/glucose oxidase toxicity, confluent cell layers were incubated with HF medium containing glucose oxidase (0.019 units/ml) along with test compounds, as indicated, for 18 hr in the tissue culture incubator. Fresh HF medium was then added and cell viability assessed using the XTT reagent as described above. For both these models, concentrations of toxic agents were selected that were reproducibly completely lethal. Cytotoxicity assessments were routinely confirmed by visual inspection of the cell layers prior to addition of the XTT reagent.
# [7] = Peroxidase activity, H2O2-dependent oxidation of ABTS (Example 2); assay type: biochemical; conditions: for Peroxidase rate: 10 μM salen manganese complex, 0.2 mM H2O2; for Peroxidase: relative to C7 (C7 = 100)
# Procedure, shortened: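 ABTS oxidation by salen manganese complex (10 μM) with 0.2 mM H2O2 in 50 mM sodium phosphate pH 8.1 (or pH 6.0/7.1 where indicated), 0.9% NaCl, 0.5 mM ABTS, 27±0.2 °C. Oxidized ABTS read spectrophotometrically at 740 or 500 nm and quantified from Δε740 20,300 or Δε500 3400 M^−1cm^−1.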
# [8] = system: Human dermal fibroblasts (HF cells); assay: Cell protection assay, glucose/glucose oxidase toxicity, XTT; assay type: cell-based
# Protocol: as §1
# Catalase and peroxidase activities were assayed as described in Example 2. Catalase assays contained 10 μM salen-manganese complex and 10 mM hydrogen peroxide. Peroxidase assays contained 10 μM salen-manganese complex and 0.2 mM hydrogen peroxide. Glucose-glucose oxidase toxicity assays were performed using human dermal fibroblasts as described in Example 2.
# [9] = 10 μM salen manganese complex, 10 mM H2O2
SOD Activity [1],Catalase Activity [2],Molecule,"Catalase rate [3, 9]","Endpoint [3, 9]",Catalase endpt. ([3]; relative to C7 (C7 = 100)),Catalase rate ([3]; relative to C7 (C7 = 100)),"MDA levels, percent of control (brain homogenates; 1 μM)","MDA levels, percent of control (brain homogenates; 5 μM)","MDA levels, percent of control (brain homogenates; 10 μM)","MDA levels, percent of control (brain homogenates; 25 μM)",peroxidase rate with t-BHP relative to C32 [4],SOD [5],"Cell viability, absorbance at 490 nm uncorrected for blank ([6]; 2.5 μM)","Cell viability, absorbance at 490 nm uncorrected for blank ([6]; 5 μM)","Cell viability, absorbance at 490 nm uncorrected for blank ([6]; 10 μM)","Cell viability, absorbance at 490 nm uncorrected for blank ([6]; 20 μM)","Cell viability, absorbance at 490 nm uncorrected for blank ([6]; 40 μM)",synergistic toxicity with t-BHP ([6]; 80 μM),"Cell viability, absorbance at 490 nm uncorrected for blank ([6]; 80 μM)",Peroxidase rate [7],also measured
101 units/mM,46 units/mM,CC(C)(C)c1cc(Cl)cc2c1[O][Mn]([Cl])[O]c1c(cc(Cl)cc1C(C)(C)C)C=NC1CCCCC1N=C2 (centres unmarked) [Compound C11],–,–,–,–,–,–,–,–,–,–,–,–,–,–,–,–,–,–,–
69 units/mM,179 units/mM,CC(C)(C)c1cc2c(c(C(C)(C)C)c1)[O][Mn]([Cl])[O]c1c(cc(C(C)(C)C)cc1C(C)(C)C)C=NC1CCCCC1N=C2 (centres unmarked) [Compound C10],–,–,–,–,–,–,–,–,–,–,–,–,–,–,–,–,–,–,–
–,–,Vitamin E,–,–,–,–,–,–,–,–,–,–,–,–,–,–,–,–,–,–,inhibition of lipid peroxidation in brain microsomes (brain microsomes): inhibition of lipid peroxidation
–,–,CC(=O)[O][Mn]1[O]c2c(F)cccc2C=NCCN=Cc2cccc(F)c2[O]1 [Compound C36],167.5 ± 9.8 μM O2/min,27.9 ± 2.3 maximal μM O2,104,128,95%,37%,16%,4%,about twice as fast as C32,104,0.28 ± 0.01,0.29 ± 0.01,1.13 ± 0.05,1.44 ± 0.04,1.28 ± 0.45,possible synergistic toxicity,0.79 ± 0.34,22.2 ± 0.8 μM ABTS oxidized/min,Peroxidase [7]: 129; protection against glucose and glucose oxidase (in words) [8]: about equally as effective as C7
4397 units/mM,144 units/mM,COc1cc2c(c(C(C)(C)C)c1)[O][Mn]([Cl])[O]c1c(cc(OC)cc1C(C)(C)C)C=NC1CCCCC1N=C2 (centres unmarked) [Compound C12],–,–,–,–,–,–,–,–,–,–,–,–,–,–,–,–,–,–,–
–,–,Fc1cccc2c1[O][Mn]([Cl])[O]c1c(F)cccc1C=NCCN=C2 [Compound C37],182.6 ± 26.8 μM O2/min,28.3 ± 0.5 maximal μM O2,104,117,94%,43%,25%,8%,about twice as fast as C32,115,0.28 ± 0.01,0.28 ± 0.01,1.20 ± 0.06,1.42 ± 0.05,1.53 ± 0.02,possible synergistic toxicity,1.20 ± 0.02,23.3 ± 0.6 μM ABTS oxidized/min,Peroxidase [7]: 92; protection against glucose and glucose oxidase (in words) [8]: about equally as effective as C7
